{"source": "paper PMC10046369", "about": "“Low-Affinity/High-Selectivity Dopamine Transport Inhibition Sufficient to Rescue Cognitive Functions in the Aging Rat” (Biomolecules, 2023)", "assay_in_all_cases": "cell-based", "design_in_all_cases": "Eurofins Cerep functional GPCR screen, antagonist mode, inhibition of control agonist response", "conditions_in_all_cases": "read-out: % Inhibition of Control Agonist Response, Mean", "key": {"CCR6": {"molecular_target": "CCR6 (Homo sapiens, UniProt P51684)"}, "AT1": {"molecular_target": "T1, AT1 (Homo sapiens, UniProt P30556)", "T1 construct": "gene AGTR1", "T1 sequence (P30556 whole entry)": "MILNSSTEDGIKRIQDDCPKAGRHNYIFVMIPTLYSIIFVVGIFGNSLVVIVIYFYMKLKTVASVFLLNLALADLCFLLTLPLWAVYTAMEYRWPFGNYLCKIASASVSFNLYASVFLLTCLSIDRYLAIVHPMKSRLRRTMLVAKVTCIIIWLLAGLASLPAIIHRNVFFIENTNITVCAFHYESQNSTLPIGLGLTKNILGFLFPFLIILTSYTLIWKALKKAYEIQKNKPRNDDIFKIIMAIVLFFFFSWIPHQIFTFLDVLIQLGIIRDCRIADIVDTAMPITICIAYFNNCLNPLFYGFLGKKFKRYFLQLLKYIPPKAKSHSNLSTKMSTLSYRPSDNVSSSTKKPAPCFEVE"}, "GIP": {"molecular_target": "T2, GIP (Homo sapiens, UniProt P48546)", "T2 construct": "gene GIPR", "T2 sequence (P48546 whole entry)": "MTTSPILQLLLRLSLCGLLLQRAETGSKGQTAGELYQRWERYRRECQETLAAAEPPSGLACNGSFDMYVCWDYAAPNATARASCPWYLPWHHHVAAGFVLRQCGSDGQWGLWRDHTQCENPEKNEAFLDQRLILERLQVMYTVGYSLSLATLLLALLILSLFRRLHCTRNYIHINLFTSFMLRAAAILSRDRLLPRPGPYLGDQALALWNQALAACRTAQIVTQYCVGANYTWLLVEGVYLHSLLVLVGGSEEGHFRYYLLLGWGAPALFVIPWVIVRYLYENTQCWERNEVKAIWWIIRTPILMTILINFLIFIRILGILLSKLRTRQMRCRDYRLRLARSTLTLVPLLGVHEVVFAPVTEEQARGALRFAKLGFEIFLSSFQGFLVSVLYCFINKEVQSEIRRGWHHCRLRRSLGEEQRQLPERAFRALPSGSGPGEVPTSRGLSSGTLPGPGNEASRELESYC"}, "CB2": {"molecular_target": "T3, CB2 (Homo sapiens, UniProt P34972)", "T3 construct": "gene CNR2"}, "CT (Calcitonin)": {"molecular_target": "T4, CT (Calcitonin) (Homo sapiens, UniProt P30988)", "T4 construct": "gene CALCR"}, "CXCR4": {"molecular_target": "CXCR4 (Homo sapiens, UniProt P61073)"}, "Ghrelin / GHSR-1a": {"molecular_target": "T5, Ghrelin / GHSR-1a (Homo sapiens, UniProt Q92847)", "T5 construct": "GHSR-1a isoform"}, "H3": {"molecular_target": "T6, H3 (Homo sapiens, UniProt Q9Y5N1)", "T6 construct": "gene HRH3"}, "A1": {"molecular_target": "T7, A1 (Homo sapiens, UniProt P30542)", "T7 construct": "gene ADORA1", "T7 sequence (P30542 whole entry)": "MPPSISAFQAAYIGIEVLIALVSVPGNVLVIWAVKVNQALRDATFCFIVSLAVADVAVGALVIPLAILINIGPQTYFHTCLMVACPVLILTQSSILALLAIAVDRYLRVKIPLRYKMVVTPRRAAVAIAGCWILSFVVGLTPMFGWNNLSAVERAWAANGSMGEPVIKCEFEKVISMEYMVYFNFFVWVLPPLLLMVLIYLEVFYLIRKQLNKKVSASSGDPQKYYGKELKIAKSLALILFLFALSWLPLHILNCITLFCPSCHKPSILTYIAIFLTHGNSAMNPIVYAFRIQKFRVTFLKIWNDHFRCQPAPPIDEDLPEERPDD"}, "CCR2": {"molecular_target": "CCR2 (Homo sapiens, UniProt P41597)", "sequence (P41597 whole entry)": "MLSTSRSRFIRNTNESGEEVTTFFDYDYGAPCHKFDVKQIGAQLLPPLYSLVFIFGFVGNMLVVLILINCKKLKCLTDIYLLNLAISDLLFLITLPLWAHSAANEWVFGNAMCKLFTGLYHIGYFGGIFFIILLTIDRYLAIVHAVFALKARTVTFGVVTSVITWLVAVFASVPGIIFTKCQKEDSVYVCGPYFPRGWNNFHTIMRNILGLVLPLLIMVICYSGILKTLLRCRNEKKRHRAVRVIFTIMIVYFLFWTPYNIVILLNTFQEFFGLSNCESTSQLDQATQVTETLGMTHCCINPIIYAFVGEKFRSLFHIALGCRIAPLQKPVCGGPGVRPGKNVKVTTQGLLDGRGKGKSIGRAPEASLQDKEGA"}, "OXGR1 GPR99": {"molecular_target": "OXGR1 GPR99 (Homo sapiens, UniProt Q96P68)", "sequence (Q96P68 whole entry)": "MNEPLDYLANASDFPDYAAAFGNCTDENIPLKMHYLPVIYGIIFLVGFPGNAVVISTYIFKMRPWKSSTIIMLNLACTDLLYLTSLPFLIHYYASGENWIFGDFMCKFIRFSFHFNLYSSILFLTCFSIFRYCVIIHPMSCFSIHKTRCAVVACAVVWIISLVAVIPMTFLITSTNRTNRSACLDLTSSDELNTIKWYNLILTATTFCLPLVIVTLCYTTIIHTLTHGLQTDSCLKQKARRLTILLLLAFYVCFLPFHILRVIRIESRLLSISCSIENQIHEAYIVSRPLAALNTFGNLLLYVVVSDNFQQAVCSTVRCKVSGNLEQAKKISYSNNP"}, "CXCR2": {"molecular_target": "CXCR2 (Homo sapiens, UniProt P25025)", "sequence (P25025 whole entry)": "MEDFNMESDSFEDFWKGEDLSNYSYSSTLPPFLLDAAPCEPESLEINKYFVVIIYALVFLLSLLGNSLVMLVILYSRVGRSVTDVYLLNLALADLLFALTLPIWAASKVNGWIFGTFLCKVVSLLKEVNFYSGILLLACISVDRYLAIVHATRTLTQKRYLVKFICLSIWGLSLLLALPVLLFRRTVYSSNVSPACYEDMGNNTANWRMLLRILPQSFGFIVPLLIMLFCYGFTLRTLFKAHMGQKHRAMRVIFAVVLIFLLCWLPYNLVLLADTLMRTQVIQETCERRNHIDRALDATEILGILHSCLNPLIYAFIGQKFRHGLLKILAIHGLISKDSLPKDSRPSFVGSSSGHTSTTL"}, "CCR8": {"molecular_target": "CCR8 (Homo sapiens, UniProt P51685)"}, "CXCR3": {"molecular_target": "CXCR3 (Homo sapiens, UniProt P49682)", "sequence (P49682 whole entry)": "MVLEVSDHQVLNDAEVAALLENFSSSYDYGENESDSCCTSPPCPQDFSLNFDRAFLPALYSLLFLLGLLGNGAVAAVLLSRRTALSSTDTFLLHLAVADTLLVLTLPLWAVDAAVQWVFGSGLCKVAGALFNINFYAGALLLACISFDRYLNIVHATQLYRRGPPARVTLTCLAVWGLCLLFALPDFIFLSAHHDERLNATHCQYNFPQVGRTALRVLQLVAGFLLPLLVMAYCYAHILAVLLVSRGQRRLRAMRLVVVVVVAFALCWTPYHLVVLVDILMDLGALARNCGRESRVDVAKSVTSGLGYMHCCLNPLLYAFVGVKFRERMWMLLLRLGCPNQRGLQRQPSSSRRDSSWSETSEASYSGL"}, "ETB": {"molecular_target": "T8, ETB (Homo sapiens, UniProt P24530)", "T8 construct": "gene EDNRB"}, "FFA4 (GPR120)": {"molecular_target": "T9, FFA4 (GPR120) (Homo sapiens, UniProt Q5NUL3)", "T9 construct": "gene FFAR4"}, "CX3CR1": {"molecular_target": "CX3CR1 (Homo sapiens, UniProt P49238)", "sequence (P49238 whole entry)": "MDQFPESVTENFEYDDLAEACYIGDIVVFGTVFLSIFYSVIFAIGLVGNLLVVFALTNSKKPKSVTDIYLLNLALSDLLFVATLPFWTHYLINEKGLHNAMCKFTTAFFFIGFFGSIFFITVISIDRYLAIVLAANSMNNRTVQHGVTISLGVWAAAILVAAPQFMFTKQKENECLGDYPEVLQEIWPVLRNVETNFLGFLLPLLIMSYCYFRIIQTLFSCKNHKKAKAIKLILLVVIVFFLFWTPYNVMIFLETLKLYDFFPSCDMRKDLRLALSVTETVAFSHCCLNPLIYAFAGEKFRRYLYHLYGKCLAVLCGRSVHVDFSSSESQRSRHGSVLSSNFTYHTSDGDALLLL"}, "D4.4": {"molecular_target": "T10, D4.4 (Homo sapiens, UniProt P21917)", "T10 construct": "gene DRD4; D4.4", "T10 sequence (P21917 whole entry)": "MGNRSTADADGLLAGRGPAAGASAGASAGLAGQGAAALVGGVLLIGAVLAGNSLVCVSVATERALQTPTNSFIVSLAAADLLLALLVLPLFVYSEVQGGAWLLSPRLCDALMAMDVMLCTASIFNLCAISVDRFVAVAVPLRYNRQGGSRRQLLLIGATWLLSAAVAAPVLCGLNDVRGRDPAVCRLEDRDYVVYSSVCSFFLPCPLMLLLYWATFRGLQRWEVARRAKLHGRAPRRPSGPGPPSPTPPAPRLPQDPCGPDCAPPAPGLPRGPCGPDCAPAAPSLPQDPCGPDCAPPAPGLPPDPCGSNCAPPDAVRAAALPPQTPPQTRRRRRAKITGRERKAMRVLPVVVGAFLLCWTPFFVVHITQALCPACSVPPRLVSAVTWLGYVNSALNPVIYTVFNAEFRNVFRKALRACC"}, "C3aR": {"molecular_target": "T11, C3aR (Homo sapiens, UniProt Q16581)", "T11 construct": "gene C3AR1", "T11 sequence (Q16581 whole entry)": "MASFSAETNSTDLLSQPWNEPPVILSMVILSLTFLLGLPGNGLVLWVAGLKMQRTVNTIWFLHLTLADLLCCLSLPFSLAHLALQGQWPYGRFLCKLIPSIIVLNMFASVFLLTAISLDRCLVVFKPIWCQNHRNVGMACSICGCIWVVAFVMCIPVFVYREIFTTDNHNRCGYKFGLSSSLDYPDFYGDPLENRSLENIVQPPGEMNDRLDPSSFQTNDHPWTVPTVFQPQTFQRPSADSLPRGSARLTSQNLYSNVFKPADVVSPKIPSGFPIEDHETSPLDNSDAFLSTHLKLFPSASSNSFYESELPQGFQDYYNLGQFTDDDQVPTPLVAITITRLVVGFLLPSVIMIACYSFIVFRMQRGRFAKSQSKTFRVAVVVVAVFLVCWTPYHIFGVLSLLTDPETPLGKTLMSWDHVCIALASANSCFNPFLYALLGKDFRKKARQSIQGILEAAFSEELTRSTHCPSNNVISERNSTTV"}, "H4": {"molecular_target": "T12, H4 (Homo sapiens, UniProt Q9H3N8)", "T12 construct": "gene HRH4", "T12 sequence (Q9H3N8 whole entry)": "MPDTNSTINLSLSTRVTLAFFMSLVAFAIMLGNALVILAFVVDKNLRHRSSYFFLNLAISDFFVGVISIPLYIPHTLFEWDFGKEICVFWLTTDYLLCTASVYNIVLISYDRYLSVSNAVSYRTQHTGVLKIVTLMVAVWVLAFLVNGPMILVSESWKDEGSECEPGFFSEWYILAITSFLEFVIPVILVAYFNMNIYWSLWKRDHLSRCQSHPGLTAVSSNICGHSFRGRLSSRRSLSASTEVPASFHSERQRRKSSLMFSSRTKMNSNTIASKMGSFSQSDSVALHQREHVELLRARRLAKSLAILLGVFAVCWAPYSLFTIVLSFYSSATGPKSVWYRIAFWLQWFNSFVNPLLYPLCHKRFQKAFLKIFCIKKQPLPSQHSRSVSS"}, "β3": {"molecular_target": "T13, β3 (Homo sapiens, UniProt P13945)", "T13 construct": "gene ADRB3"}, "GPR103/QRFP": {"molecular_target": "T14, GPR103/QRFP (Homo sapiens, UniProt Q96P65)", "T14 construct": "gene QRFPR"}, "β2": {"molecular_target": "T15, β2 (Homo sapiens, UniProt P07550)", "T15 construct": "gene ADRB2", "T15 sequence (P07550 whole entry)": "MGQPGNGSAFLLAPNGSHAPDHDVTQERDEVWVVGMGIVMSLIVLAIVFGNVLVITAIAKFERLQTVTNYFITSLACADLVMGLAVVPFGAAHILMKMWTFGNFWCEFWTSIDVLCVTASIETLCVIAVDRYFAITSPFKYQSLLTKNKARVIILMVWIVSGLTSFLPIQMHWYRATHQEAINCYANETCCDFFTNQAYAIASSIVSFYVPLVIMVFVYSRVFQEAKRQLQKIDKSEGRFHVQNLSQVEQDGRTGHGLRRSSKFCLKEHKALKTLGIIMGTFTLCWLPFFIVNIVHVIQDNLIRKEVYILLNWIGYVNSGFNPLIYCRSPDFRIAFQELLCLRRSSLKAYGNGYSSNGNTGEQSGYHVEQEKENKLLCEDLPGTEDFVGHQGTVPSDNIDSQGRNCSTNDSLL"}, "CysLT2 (LTC4)": {"molecular_target": "T16, CysLT2 (LTC4) (Homo sapiens, UniProt Q9NS75)", "T16 construct": "gene CYSLTR2"}, "CRF1": {"molecular_target": "T17, CRF1 (Homo sapiens, UniProt P34998)", "T17 construct": "gene CRHR1"}, "D1": {"molecular_target": "T18, D1 (Homo sapiens, UniProt P21728)", "T18 construct": "gene DRD1"}}}
{"smiles": "[O-][S@@+](Cc1cncs1)C(c1ccccc1)c1ccccc1", "note": "[S-CE-123, (S)-5-((Benzhydrylsulfinyl)Methyl)Thiazole]", "values": [{"measurement": "inhibition at 2.8 µM", "setting": "CCR6", "value": -26.7, "unit": "%"}, {"measurement": "inhibition at 2.8 µM", "setting": "AT1", "value": 3, "unit": "%"}, {"measurement": "inhibition at 2.8 µM", "setting": "GIP", "value": -6.6, "unit": "%"}, {"measurement": "inhibition at 2.8 µM", "setting": "CB2", "value": 8.6, "unit": "%"}, {"measurement": "inhibition at 2.8 µM", "setting": "CT (Calcitonin)", "value": -21.7, "unit": "%"}, {"measurement": "inhibition at 2.8 µM", "setting": "CXCR4", "value": -40.7, "unit": "%"}, {"measurement": "inhibition at 2.8 µM", "setting": "Ghrelin / GHSR-1a", "value": -11.7, "unit": "%"}, {"measurement": "inhibition at 2.8 µM", "setting": "H3", "value": -0.3, "unit": "%"}, {"measurement": "inhibition at 2.8 µM", "setting": "A1", "value": 10.6, "unit": "%"}, {"measurement": "inhibition at 2.8 µM", "setting": "CCR2", "value": 2, "unit": "%"}, {"measurement": "inhibition at 2.8 µM", "setting": "OXGR1 GPR99", "value": -10.2, "unit": "%"}, {"measurement": "inhibition at 2.8 µM", "setting": "CXCR2", "value": 3.8, "unit": "%"}, {"measurement": "inhibition at 2.8 µM", "setting": "CCR8", "value": -19.9, "unit": "%"}, {"measurement": "inhibition at 2.8 µM", "setting": "CXCR3", "value": -7.8, "unit": "%"}, {"measurement": "inhibition at 2.8 µM", "setting": "ETB", "value": 1.5, "unit": "%"}, {"measurement": "inhibition at 2.8 µM", "setting": "FFA4 (GPR120)", "value": -14.4, "unit": "%"}, {"measurement": "inhibition at 2.8 µM", "setting": "CX3CR1", "value": -15.8, "unit": "%"}, {"measurement": "inhibition at 2.8 µM", "setting": "D4.4", "value": -7.9, "unit": "%"}, {"measurement": "inhibition at 2.8 µM", "setting": "C3aR", "value": 11.4, "unit": "%"}, {"measurement": "inhibition at 2.8 µM", "setting": "H4", "value": 3.4, "unit": "%"}, {"measurement": "inhibition at 2.8 µM", "setting": "β3", "value": 15.5, "unit": "%"}, {"measurement": "inhibition at 2.8 µM", "setting": "GPR103/QRFP", "value": -8.8, "unit": "%"}, {"measurement": "inhibition at 2.8 µM", "setting": "β2", "value": -1.2, "unit": "%"}, {"measurement": "inhibition at 2.8 µM", "setting": "CysLT2 (LTC4)", "value": 4.5, "unit": "%"}, {"measurement": "inhibition at 2.8 µM", "setting": "CRF1", "value": -16.9, "unit": "%"}, {"measurement": "inhibition at 2.8 µM", "setting": "D1", "value": -5.6, "unit": "%"}]}
